Test results taken from US20260256792A1, “TREATMENT OF CHRONIC SPONTANEOUS URTICARIA BY ADMINISTERING (R)-2-[3-[4-AMINO-3-(2-FLUORO-4-PHENOXY-PHENYL)PYRAZOLO[3,4-D]PYRIMIDIN-1-YL]PIPERIDINE-1-CARBONYL]-4-METHYL-4-[4-(OXETAN-3-YL)PIPERAZIN-1-YL]PENT-2-ENENITRILE” (priority 2023, published 2026).

How the values were obtained:
[1] = system: moderate-to-severe chronic spontaneous urticaria (CSU); assay: Phase 2 CSU study: Patient Global Impression of Change (PGIC); format: in vivo, human; conditions: for PGIC Mean (SD) / PGIC Median / PGIC category A little better, patients / PGIC category A little worse, patients / PGIC category Moderately better, patients / PGIC category Moderately worse, patients / PGIC category No change, patients / PGIC category Very much better, patients / PGIC category Very much worse, patients: omalizumab-naïve population; for PGIC LS Mean (SE) / PGIC LS Mean Diff vs. placebo (95% CI): omalizumab-naïve, ANCOVA
From the text: The study comprises a 12 week, randomized, double-blind, placebo-controlled, multi-center, dose-ranging efficacy and safety phase, followed by a 40 week open label extension (OLE) phase (see FIG. 1).
The study consists of three phases and an optional OLE phase.
The PGIS is a 1-item measure that asks participants to provide a self-assessment of their overall CSU severity for the past week on a 4 point scale. Response choices are: “None”, “Mild”, “Moderate” and “Severe”. The PGIC is a 1-item measure that asks the participant to provide a self-assessment of overall change in their CSU since the participant started taking the study medication on a 7-point scale. The response options range from “Very Much Better” to “Very Much Worse.” Patients were to complete questionnaires for the 2 items during their site visit.

[2] = system: other TEC family members; conditions: cited from earlier work
[3] = system: total serum IgE or IgG; assay: Phase 2 CSU study: total serum immunoglobulins (IgE, IgG, IgM); conditions: for Total IgE (IU/mL) Median Percent Change from Baseline / Total IgG (g/L) Median Percent Change from Baseline: Baseline to Week 12
Protocol: Changes in disease-relevant biomarkers were assessed over the course of the 12-Week double-blind phase (see FIG. 40). Biomarkers included sMRGPRX2, IgE anti-TPO, IgG anti-FCεRI, IL-31, IgM, IgE, IgG, IgG anti-IgE, and white blood cell levels.

## CC(C)(C=C(C#N)C(=O)N1CCC[C@@H](n2nc(-c3ccc(Oc4ccccc4)cc3F)c3c(N)ncnc32)C1)N1CCN(C2COC2)CC1 [rilzabrutinib, (R)-2-[3-[4-amino-3-(2-fluoro-4-phenoxy-phenyl)pyrazolo[3,4-d]pyrimidin-1-yl]piperidine-1-carbonyl]-4-methyl-4-[4-(oxetan-3-yl)piperazin-1-yl]pent-2-enenitrile]
[1]; 400 mg TID
  quality of life as measured by PGIC: improvement
[1]; Week 2, 400 mg BID
  PGIC Mean (SD): 1.61
  PGIC Median: 1.00
  PGIC category A little better, patients: 6 (19.4)
  PGIC category A little worse, patients: 1 (3.2)
  PGIC category Moderately better, patients: 5 (16.1)
  PGIC category Moderately worse, patients: 1 (3.2)
  PGIC category No change, patients: 6 (19.4)
  PGIC category Very much better, patients: 11 (35.5)
  PGIC category Very much worse, patients: 1 (3.2)
  PGIC LS Mean (SE): 1.53
  PGIC LS Mean Diff vs. placebo (95% CI): −0.81
[1]; Week 2, 400 mg QPM
  PGIC Mean (SD): 2.33
  PGIC Median: 3.00
  PGIC category A little better, patients: 7 (21.2)
  PGIC category A little worse, patients: 1 (3.0)
  PGIC category Moderately better, patients: 5 (15.2)
  PGIC category Moderately worse, patients: 0
  PGIC category No change, patients: 16 (48.5)
  PGIC category Very much better, patients: 3 (9.1)
  PGIC category Very much worse, patients: 1 (3.0)
  PGIC LS Mean (SE): 2.12
  PGIC LS Mean Diff vs. placebo (95% CI): −0.22
[1]; Week 2, 400 mg TID
  PGIC Mean (SD): 1.42
  PGIC Median: 1.00
  PGIC category A little better, patients: 7 (21.2)
  PGIC category A little worse, patients: 0
  PGIC category Moderately better, patients: 7 (21.2)
  PGIC category Moderately worse, patients: 1 (3.0)
  PGIC category No change, patients: 5 (15.2)
  PGIC category Very much better, patients: 12 (36.4)
  PGIC category Very much worse, patients: 1 (3.0)
  PGIC LS Mean (SE): 1.43
  PGIC LS Mean Diff vs. placebo (95% CI): −0.91
[1]; Week 4, 400 mg BID
  PGIC Mean (SD): 1.67
  PGIC Median: 1.00
  PGIC category A little better, patients: 6 (18.2)
  PGIC category A little worse, patients: 2 (6.1)
  PGIC category Moderately better, patients: 8 (24.2)
  PGIC category Moderately worse, patients: 0
  PGIC category No change, patients: 7 (21.2)
  PGIC category Very much better, patients: 9 (27.3)
  PGIC category Very much worse, patients: 1 (3.0)
  PGIC LS Mean (SE): 1.59
  PGIC LS Mean Diff vs. placebo (95% CI): −0.49
[1]; Week 4, 400 mg QPM
  PGIC Mean (SD): 2.24
  PGIC Median: 2.00
  PGIC category A little better, patients: 10 (29.4)
  PGIC category A little worse, patients: 5 (14.7)
  PGIC category Moderately better, patients: 4 (11.8)
  PGIC category Moderately worse, patients: 1 (2.9)
  PGIC category No change, patients: 7 (20.6)
  PGIC category Very much better, patients: 6 (17.6)
  PGIC category Very much worse, patients: 1 (2.9)
  PGIC LS Mean (SE): 2.06
  PGIC LS Mean Diff vs. placebo (95% CI): −0.02
[1]; Week 4, 400 mg TID
  PGIC Mean (SD): 1.14
  PGIC Median: 1.00
  PGIC category A little better, patients: 6 (20.7)
  PGIC category A little worse, patients: 1 (3.4)
  PGIC category Moderately better, patients: 5 (17.2)
  PGIC category Moderately worse, patients: 0
  PGIC category No change, patients: 4 (13.8)
  PGIC category Very much better, patients: 13 (44.8)
  PGIC category Very much worse, patients: 0
  PGIC LS Mean (SE): 1.18
  PGIC LS Mean Diff vs. placebo (95% CI): −0.90
[1]; Week 8, 400 mg BID
  PGIC Mean (SD): 1.42
  PGIC Median: 1.00
  PGIC category A little better, patients: 3 (9.1)
  PGIC category A little worse, patients: 1 (3.0)
  PGIC category Moderately better, patients: 8 (24.2)
  PGIC category Moderately worse, patients: 1 (3.0)
  PGIC category No change, patients: 6 (18.2)
  PGIC category Very much better, patients: 13 (39.4)
  PGIC category Very much worse, patients: 1 (3.0)
  PGIC LS Mean (SE): 1.43
  PGIC LS Mean Diff vs. placebo (95% CI): −0.41
[1]; Week 8, 400 mg QPM
  PGIC Mean (SD): 2.21
  PGIC Median: 2.00
  PGIC category A little better, patients: 9 (27.3)
  PGIC category A little worse, patients: 2 (6.1)
  PGIC category Moderately better, patients: 6 (18.2)
  PGIC category Moderately worse, patients: 1 (3.0)
  PGIC category No change, patients: 10 (30.3)
  PGIC category Very much better, patients: 4 (12.1)
  PGIC category Very much worse, patients: 1 (3.0)
  PGIC LS Mean (SE): 2.10
  PGIC LS Mean Diff vs. placebo (95% CI): 0.27
[1]; Week 8, 400 mg TID
  PGIC Mean (SD): 0.90
  PGIC Median: 1.00
  PGIC category A little better, patients: 2 (6.7)
  PGIC category A little worse, patients: 1 (3.3)
  PGIC category Moderately better, patients: 10 (33.3)
  PGIC category Moderately worse, patients: 0
  PGIC category No change, patients: 3 (10.0)
  PGIC category Very much better, patients: 14 (46.7)
  PGIC category Very much worse, patients: 0
  PGIC LS Mean (SE): 0.98
  PGIC LS Mean Diff vs. placebo (95% CI): −0.86
[1]; Week 12, 400 mg BID
  PGIC Mean (SD): 1.03
  PGIC Median: 0.50
  PGIC category A little better, patients: 1 (3.3)
  PGIC category A little worse, patients: 1 (3.3)
  PGIC category Moderately better, patients: 8 (26.7)
  PGIC category Moderately worse, patients: 1 (3.3)
  PGIC category No change, patients: 4 (13.3)
  PGIC category Very much better, patients: 15 (50.0)
  PGIC category Very much worse, patients: 0
  PGIC LS Mean (SE): 1.17
  PGIC LS Mean Diff vs. placebo (95% CI): −0.46
[1]; Week 12, 400 mg QPM
  PGIC Mean (SD): 2.12
  PGIC Median: 2.00
  PGIC category A little better, patients: 7 (20.6)
  PGIC category A little worse, patients: 2 (5.9)
  PGIC category Moderately better, patients: 6 (17.6)
  PGIC category Moderately worse, patients: 1 (2.9)
  PGIC category No change, patients: 11 (32.4)
  PGIC category Very much better, patients: 6 (17.6)
  PGIC category Very much worse, patients: 1 (2.9)
  PGIC LS Mean (SE): 2.00
  PGIC LS Mean Diff vs. placebo (95% CI): 0.38
[1]; Week 12, 400 mg TID
  PGIC Mean (SD): 0.97
  PGIC Median: 0.00
  PGIC category A little better, patients: 4 (12.9)
  PGIC category A little worse, patients: 2 (6.5)
  PGIC category Moderately better, patients: 5 (16.1)
  PGIC category Moderately worse, patients: 0
  PGIC category No change, patients: 3 (9.7)
  PGIC category Very much better, patients: 17 (54.8)
  PGIC category Very much worse, patients: 0
  PGIC LS Mean (SE): 0.98
  PGIC LS Mean Diff vs. placebo (95% CI): −0.64
[2]
  binding over time: decayed rapidly over time
[3]; 12-week double-blind phase
  change in total serum IgE or IgG levels: not associated with a change
[3]; 400 mg BID
  Total IgE (IU/mL) Median Percent Change from Baseline: 3.9%
  Total IgG (g/L) Median Percent Change from Baseline: 0.96%
[3]; 400 mg QPM
  Total IgE (IU/mL) Median Percent Change from Baseline: 3.4%
  Total IgG (g/L) Median Percent Change from Baseline: −1.99%
[3]; 400 mg TID
  Total IgE (IU/mL) Median Percent Change from Baseline: 4.1%
  Total IgG (g/L) Median Percent Change from Baseline: 0.24%
